US20260240879A1, “TOPICAL PALA THERAPY FOR CANCER” (priority 2023, published 2026)
“Also recorded” adds a separate entry of the source.

Legend:
[1] = tested on: cytokines and chemokines in treated skin; experiment: Cytokine/chemokine profile of treated skin lysates (U-PLEX); conditions: for expression of inflammatory cytokine/chemokine panel in treated skin (in words): daily topical 2% PALA, 5% IMQ or 5% 5-FU, 7 days, vs vehicle; for IL-17C, Mean (SEM) / IL-17A, Mean (SEM) / GM-CSF, Mean (SEM) / IL-6, Mean (SEM) / KC, Mean (SEM) / RANTES, Mean (SEM): treated skin lysate, day 7, 2% PALA, 5% IMQ, 5% 5-FU, n = 5/group; for IL-17C, Mean (SEM): vehicle 0.5 (0.03); for IL-17A, Mean (SEM): vehicle 0.6 (0.1); for GM-CSF, Mean (SEM): vehicle 0.8 (0.1); for IL-6, Mean (SEM): vehicle 25.4 (3.2); for KC, Mean (SEM): vehicle 26.3 (6.4); for RANTES, Mean (SEM): vehicle 43.7 (3.2)
Protocol: The topical formulations of 2% PALA/50% acetone/10% glycerol, 5% imiquimod (IMQ), 5% 5-FU (5-FU), vehicle (50% acetone/10% glycerol) control, and Aquaphor were applied (~0.05 g/mouse) daily to the dorsal skin of SKH1-Elite female mice (8 weeks of age; n=5/group) for 7 days. […] Mice were monitored daily for weight change, skin appearance, and signs of distress.
Skin protein lysates were made by homogenizing frozen tissue with a pestle and scissors in RIPA buffer (50 mM Tris, pH8, 150 mM NaCl, 0.5% sodium deoxycholate, 1% NP-40, 0.1% sodium dodecyl sulfate, lx Pierce protease inhibitor cocktail (A32965, ThermoFisher)). Cytokines and chemokines were quantified from 25 μg of lysate using a custom 10-plex U-PLEX panel (K15069L-2; Meso Scale Discovery) that included: GM-CSF, KC/CXCL1, IFNα, IFNβ, IFNγ, IL-10, IL-6, IL-12p70, IL-17A, IL-17C, IL-17F, IP-10/CXCL10, MCP-1/CCL2, RANTES/CCL5, and TNFα. The MESO SECTOR S 600 plate reader (ICOAA-0; Meso Scale Discovery) was used to collect the U-Plex data and data was analyzed using MSD Discovery Workbench 4.0 software.

[2] = Skin irritation testing, daily topical application for 7 days; conditions: for skin histology on day 7 / spleen weight on day 7 / skin irritation apparent: daily topical 2% PALA, 5% IMQ or 5% 5-FU; for skin irritation apparent / weight change: naive mice; for weight change: daily topical 5% IMQ or 5% 5-FU, in contrast to vehicle and 2% PALA
Protocol: The topical formulations of 2% PALA/50% acetone/10% glycerol, 5% imiquimod (IMQ), 5% 5-FU (5-FU), vehicle (50% acetone/10% glycerol) control, and Aquaphor were applied (~0.05 g/mouse) daily to the dorsal skin of SKH1-Elite female mice (8 weeks of age; n=5/group) for 7 days. […] Mice were monitored daily for weight change, skin appearance, and signs of distress. […] At harvest, spleen weights and colon lengths were measured.

[3] = tested on: UVB-induced NMSC (AK lesions and SCC tumors); experiment: UVB-induced NMSC mouse model: tumor number, area, growth phenotype and grade; conditions: 2% PALA or 5% IMQ, daily, 4 weeks
[4] = Toxicity markers in UVB-tumor-bearing mice under topical treatment (weight, SAA, colon length, fecal LCN2); conditions: 5% (w/w) 5-fluorouracil, daily topical
Protocol: Serum amyloid A levels were measured in plasma samples using the Mouse SAA ELISA kit (E-90SAA, Immunology Consultants Laboratory, Inc.) according to manufacturer's instructions. Lipocalin-2 (LCN2) was quantified from pre-weighed stool samples homogenized in 0.5 mL PBS using the Mouse Lipocalin-2/NGAL DuoSet ELISA (DY1857) and DuoSet Ancillary Reagent Kit 2 (DY008, R&D Systems).

CC(C)Cn1cnc2c(N)nc3ccccc3c21 [IMQ, imiquimod]
expression of inflammatory cytokine/chemokine panel in treated skin (in words) [1]: upregulation of IL-17 family cytokines; also recorded: cutaneous levels of RANTES and GM-CSF were elevated
IL-17C, Mean (SEM) [1]: 1.0 (0.04)
IL-17A, Mean (SEM) [1]: 1.6 (0.1)
GM-CSF, Mean (SEM) [1]: 2.5 (0.7)
IL-6, Mean (SEM) [1]: 61.3 (10.0)
KC, Mean (SEM) [1]: 28.6 (5.9)
RANTES, Mean (SEM) [1]: 141.0 (36.1)
skin histology on day 7 [2]: overt thickening of the epidermis
spleen weight on day 7 [2]: splenomegaly
skin irritation apparent [2]: 2 days
weight change [2]: significant weight loss
tumor levels of interleukin-1β [3]: elevated

O=c1[nH]cc(F)c(=O)[nH]1 [Formulation 5-FU, fluorouracil]
expression of inflammatory cytokine/chemokine panel in treated skin (in words) [1]: increased expression of IL-6, IL-17C, KC, and GM-CSF
IL-17C, Mean (SEM) [1]: 1.4 (0.1)
IL-17A, Mean (SEM) [1]: 1.2 (0.4)
GM-CSF, Mean (SEM) [1]: 2.6 (0.2)
IL-6, Mean (SEM) [1]: 268.8 (104.8)
KC, Mean (SEM) [1]: 114.5 (16.4)
RANTES, Mean (SEM) [1]: 17.7 (5.0)
early termination of animals at the request of veterinary staff [4]: terminated after 2.5 weeks of treatment
skin histology on day 7 [2]: epithelial erosion
spleen weight on day 7 [2]: significant decreases in spleen weight
skin irritation apparent [2]: 5 days
weight change [2]: significant weight loss
